Results reported in ChEMBL document CHEMBL1201862, “PubChem BioAssay data set” (2004).
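Method: 48-hour compound exposure of cells in 96-well plates, five concentrations, linear interpolation of endpoints. At the GI50, growth is halved.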 Calls of active or inactive are those of the source. Cut-off read from the data, not from the text of the source: active = GI50 up to about 1.1 µM and inactive = higher.

Tests used:
Test in all cases: inhibition of tumour cell growth, NCI panel, 48 h
[1] = system: SK-MEL-28
[2] = system: TK-10
[3] = system: OVCAR-5
[4] = system: Malme-3M
[5] = system: CAKI-1
[6] = system: HOP-62
[7] = system: SK-MEL-2
[8] = system: UACC-257
[9] = system: A498
[10] = system: HOP-18
[11] = system: SNB-19
[12] = system: OVCAR-3
[13] = system: UACC-62
[14] = system: OVCAR-8
[15] = system: LXFL 529
[16] = system: HL-60
[17] = system: HOP-92
[18] = system: SF-295
[19] = system: MOLT-4
[20] = system: UO-31
[21] = system: HCT-15
[22] = system: DMS-273
[23] = system: NCI-H522
[24] = system: DLD-1
[25] = system: 786-0
[26] = system: ACHN
[27] = system: SK-MEL-5
[28] = system: SF-539
[29] = system: M14
[30] = system: OVCAR-4
[31] = system: XF498
[32] = system: KM12
[33] = system: NCI-H460
[34] = system: NCI-H226
[35] = system: RXF 631
[36] = system: DMS-114
[37] = system: RXF 393
[38] = system: CCRF-CEM
[39] = system: HT-29
[40] = system: A549
[41] = system: LOX IMVI
[42] = system: IGROV-1
[43] = system: SF-268
[44] = system: COLO 205
[45] = system: EKVX
[46] = system: SNB-75
[47] = system: NCI-H23
[48] = system: K562
[49] = system: HCC 2998
[50] = system: RPMI-8226
[51] = system: SN12C
[52] = system: M19-MEL
[53] = system: HCT-116
[54] = system: U-251
[55] = system: SNB-78
[56] = system: SR
[57] = system: KM-20L2
[58] = system: SK-OV-3

Measured: GI50

C=CC(OCC)(OCC)OCC
53.1 µM: [21]
inactive: [1] > 100 µM | [2] > 100 µM | [3] > 100 µM | [4] > 100 µM | [5] > 100 µM | [6] > 100 µM | [7] > 100 µM | [8] > 100 µM | [9] > 100 µM | [10] > 100 µM | [11] > 100 µM | [12] > 100 µM | [13] > 100 µM | [14] > 100 µM | [15] 77.3 µM | [16] > 100 µM | [17] > 100 µM | [18] > 100 µM | [19] > 100 µM | [20] > 100 µM | [22] 18.2 µM | [23] > 100 µM | [24] 35.2 µM | [25] 23.5 µM | [26] > 100 µM | [27] > 100 µM | [28] > 100 µM | [29] > 100 µM | [30] > 100 µM | [31] > 100 µM | [32] > 100 µM | [33] > 100 µM | [34] > 100 µM | [35] > 100 µM | [36] 15.6 µM | [37] > 100 µM | [38] > 100 µM | [39] > 100 µM | [40] > 100 µM | [41] 66.2 µM | [42] > 100 µM | [43] > 100 µM | [44] > 100 µM | [45] > 100 µM | [46] > 100 µM | [47] > 100 µM | [48] > 100 µM | [49] > 100 µM | [50] 61.1 µM | [51] > 100 µM | [52] > 100 µM | [53] 20.6 µM | [54] > 100 µM | [55] > 100 µM | [56] 29.9 µM | [57] > 100 µM | [58] > 100 µM
